System: hRpn13 Pru
Assay: 1H-15N HSQC NMR, DTT versus TCEP in buffer
Assay type: binding, human
Settings: 1 mM DTT or TCEP, 15N-hRpn13 Pru, 25 °C, 850 MHz
Source text: Although DTT is trapped bound to C88 in the crystal, we expected that its interaction with hRpn13 in solution is likely to be transient and dynamic. Nonetheless, we tested whether NMR spectroscopy could detect differences between hRpn13 Pru dissolved in buffer containing DTT versus TCEP. We used previously obtained NMR resonance assignments[13] and 2D ^1H-^15N HSQC experiments to detect the hRpn13 amide signals, which are sensitive to changes in their chemical environment, for ^15N-labeled hRpn13 Pru with either 1 mM DTT or TCEP present in the buffer. […] C60 and C80 by contrast show no spectral perturbations (Supplementary Fig. 8a).
All ^1H-^15N HSQC experiments were acquired on samples dissolved in NMR buffer (20 mM sodium phosphate, pH 6.5, 50 mM NaCl, 1 mM TCEP, 10% D2O) unless specified, in which case 2 mM DTT replaced TCEP. The samples were purified in DTT-containing buffer and then exchanged into NMR buffer by using Zeba Protein Desalting columns (Thermo Fisher Scientific). The pH was measured and adjusted to 6.5. […] The data were processed by NMRpipe[46] (version 11.5) and spectra visualized and analyzed with NMR-FAM-SPARKY[47] (version 3.190) by using previous chemical shift assignments[12],[23] and NMRbox[48]. The amide nitrogen and hydrogen chemical shift perturbations (CSP) were mapped for each amino acid according to Eq. 1.1 CSP=0.2ΔδN2+ΔδH2 […]

O[C@@H](CS)[C@@H](O)CS (racemic) [DTT, dithiothreitol]
HSQC signal shifting, DTT versus TCEP: slight signal shifting, including for C88
